Results published in patent US5668136A, “Trisubstituted benzene derivatives, composition and methods of treatment” (priority 1990, dated 1997).

What was measured:
ACAT = target: T1, ACAT (Oryctolagus cuniculus, UniProt G1SFD9); test: ACAT-inhibitory activity (in-vitro test, esterification of cholesterol with oleoyl-CoA, microsome of the small intestine of a rabbit); assay type: biochemical
T1 construct: by using the microsome of the small intestine of a rabbit as an enzyme source; from tissue; host or cells: rabbit small intestine, microsomes
T1 sequence (G1SFD9 1-524): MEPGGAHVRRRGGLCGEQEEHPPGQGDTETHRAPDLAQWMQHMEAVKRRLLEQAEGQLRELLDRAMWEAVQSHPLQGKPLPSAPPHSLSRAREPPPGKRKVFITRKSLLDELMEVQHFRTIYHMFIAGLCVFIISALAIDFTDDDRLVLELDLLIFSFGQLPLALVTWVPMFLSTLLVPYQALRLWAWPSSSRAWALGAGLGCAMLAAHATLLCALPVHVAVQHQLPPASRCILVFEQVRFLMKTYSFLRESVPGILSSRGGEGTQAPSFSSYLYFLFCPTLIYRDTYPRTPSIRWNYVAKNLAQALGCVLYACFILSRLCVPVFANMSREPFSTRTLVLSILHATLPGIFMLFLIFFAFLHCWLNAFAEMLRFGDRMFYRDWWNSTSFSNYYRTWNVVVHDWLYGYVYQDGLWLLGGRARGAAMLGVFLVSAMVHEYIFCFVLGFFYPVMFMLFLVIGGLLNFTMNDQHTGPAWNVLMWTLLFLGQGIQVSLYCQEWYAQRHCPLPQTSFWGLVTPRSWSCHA
Procedure: Representative compounds according to the present invention were examined for ACAT-inhibitory activity according to the in-vitro test proposed in Journal of Lipid Research, vol.
The inhibitory activity of a test compound against esterification or acylation of cholesterol with oleoyl CoA or acyl-CoA was evaluated by using the microsome of the small intestine of a rabbit as an enzyme source and determining the amount of a radioisotope-labeled cholesterol oleate made from a radioisotope-labeled oleoyl-CoA and (free) cholesterol.

[1] = In-vivo test: serum cholesterol level in hypercholesterolemic rats; design: species or system male Sprague-Dawley rat; details: oral, once a day, 10 mg per kg; food containing 1% of cholesterol for 2 days
Procedure: A male Sprague-Dawley rat was made to get hypercholesterolemia by feeding with food containing 1% of cholesterol for 2 days. A compound of the present invention (compound of Example 1, 54, 17 or 64) was orally administered to the rat once a day in a dose of 10 mg per kg of the weight.

[2] = One week toxic study in rats; assay type: in vivo, Sprague-Dawley rats; details: oral, 100 mg/kg daily for one week; for toxicity (overall finding of one week study): same condition
Procedure: The compound was orally given to animals at daily does of 100 mg/kg for one week.

Row | SMILES | IC50 (ACAT) [nM] | lowering of serum cholesterol level [1] | toxicity (overall finding of one week study) [2] | toxicological symptom during the administration [2]
1 | CCCCCNC(=O)Nc1c(OCCCN2CCN(c3ccccc3)CC2)cccc1N(C)C [Example 64, N-[6-N,N-Dimethylamino-2-{3-(4-phenylpiperazin-1-yl)propoxy}]phenyl-N'-pentylurea] | 17 | effectively lowered | – | –
2 | CCCCNC(=O)Nc1c(C)cccc1OCCCn1cnc(-c2ccccc2)c1 [Example 54, N-[6-Methyl-2-{3-(4-phenyl-1H-imidazol-1-yl)propoxy}]-phenyl-N'-butylurea] | 48 | effectively lowered | – | –
3 | CCCCCNC(=O)Nc1c(OCCCn2cnc(-c3ccccc3)c2)cccc1N(C)C [Example 5, N-[6-N,N-Dimethylamino-2-{3-(4-phenyl-1H-imidazol-1-yl)propoxy}]phenyl-N'-pentylurea] | – | – | no toxic substances | –
4 | CCCCCCNC(=O)Nc1c(OCCCn2cnc(-c3ccccc3)c2)cccc1N(C)C [Example 17, N-[6-N,N-Dimethylamino-2-{3-(4-phenyl-1H-imidazol-1-yl)propoxy}]phenyl-N'-hexylurea] | 31 | effectively lowered | no toxic substances | –
5 | CCCCCNC(=O)Nc1c(C)cccc1OCCCn1cnc(-c2ccccc2)c1C [Example 127, N-[6-Methyl-2-{3-(5-methyl-4-phenyl-1H-imidazol-1-yl)-propoxy}]phenyl-N'-pentylurea] | 100 | – | no toxic substances | –
6 | CCCCCNC(=O)Nc1c(C)cccc1OCCCn1cnc(-c2ccccc2)c1Cl [Example 93, N-[6-Methyl-2-{3-(5-chloro-4-phenyl-1H-imidazol-1-yl)-propoxy}]phenyl-N'-pentylurea] | 49 | – | – | –
7 | CCCCNC(=O)Nc1c(C)cccc1OCCCn1cnc(-c2ccccc2)c1CC [Example 81, N-[6-Methyl-2-{3-(5-ethyl-4-phenyl-1H-imidazol-1-yl)-propoxy}]phenyl-N'-butylurea] | – | – | no toxic substance | No toxicological sympton was observed
8 | CCCCCNC(=O)Nc1c(OCCCn2cnc(-c3ccccc3)c2C)cccc1N(C)C [Example 1, N-[6-N,N-Dimethylamino-2-{3-(5-methyl-4-phenyl-1H-imidazol-1-yl)propoxy}]phenyl-N'-pentylurea] | 43 | effectively lowered | no toxic substances | –
9 | CCCCNC(=O)Nc1c(C)cccc1OCCCn1cnc(-c2ccccc2)c1C(C)C [Example 80, N-[6-Methyl-2-[3-{5-(1-methylethyl)-4-phenyl-1H-imidazol-1-yl}propoxy]]phenyl-N'-butylurea] | 88 | – | no toxic substances | –
10 | CCCCNC(=O)Nc1c(OCCCn2cnc(-c3ccccc3)c2)cccc1N(C)C [Example 2, N-[6-N,N-Dimethylamino-2-{3-(4-phenyl-1H-imidazol-1-yl)propoxy}]phenyl-N'-butylurea] | – | – | no toxic substances | –
